In brackets after ≈: the same amount, converted by molar mass.
How the values were obtained:
PC-3 (prostate cancer) = assay: MTT growth inhibition of human solid tumor cells, 72 h; assay type: cell-based; details: Homo sapiens, MTT
Experimental: (§1) Human solid tumor cell lines: Hep-2 (laryngeal carcinoma), A549 (human lung cancer), CaES-17 (esophageal cancer cell), PC-3 (prostate cancer), CNE (nasopharyngeal carcinoma cell), and SK-OV-3 (ovarian cancer cell), all of which are purchased from China Center For Type Culture Collection; RKO (human colon adenocarcinoma cell), MGC 803 (human gastric cancer cell), MG63 (osteosarcoma) and U87 MG (malignant glioma cell), all of which are purchased from Fuxiang Bio-tech Co. Ltd., Shanghai, China; PANC-1 (pancreatic cancer), Huh7 (human liver cancer cell), Becap37 (human breast cancer cell), and Hela (human cervical cancer cell), all of which are donated by Cancer Research Institute of Zhejiang University, China.
(§2) Obtaining 4000 well-growing human solid tumor cells and inoculating them into wells of a 96-well cell culture plate. The culture medium is DMEM High Glucose cell culture medium containing 10% fetal bovine serum. The plate is placed in a carbon dioxide cell incubator (5% CO2) at 37° C. and incubated for 24 hours. After adding the homoharringtonine derivatives of different concentration and mixing uniformly, the plate is placed in a carbon dioxide cell incubator (5% CO2) at 37° C. and incubated for 72 hours. Then the viable cell concentration is determined by the MTT method and the cell viability (%) after drug treatment is calculated. In this experiment, the cell viability of control group (not treated with any compound) is set as 100%.

[1] = system: Hep-2 (laryngeal carcinoma); assay: as above; assay type: cell-based; details: Homo sapiens, HEp-2
Experimental: as §1, §2

[2] = system: RKO (human colon adenocarcinoma cell); assay: as above; assay type: cell-based; details: Homo sapiens, MTT
Experimental: as §1, §2

[3] = system: SK-OV-3 (ovarian cancer cell); assay: as above; assay type: cell-based; details: Homo sapiens, SK-OV-3, MTT
Experimental: as §1, §2

[4] = system: Huh7 (human liver cancer cell); assay: as above; assay type: cell-based; details: Homo sapiens, Huh-7
Experimental: as §1, §2

MG63 (osteosarcoma) = assay: as above; assay type: cell-based; details: Homo sapiens, MG-63, MTT
Experimental: as §1, §2

A549 (human lung cancer) = assay: as above; assay type: cell-based; details: Homo sapiens, A549
Experimental: as §1, §2

[5] = system: Hela (human cervical cancer cell); assay: as above; assay type: cell-based; details: Homo sapiens, HeLa, MTT
Experimental: as §1, §2

[6] = system: U87 MG (malignant glioma cell); assay: as above; assay type: cell-based; details: Homo sapiens, U-87 MG
Experimental: as §1, §2

[7] = system: CaES-17 (esophageal cancer cell); assay: as above; assay type: cell-based; details: Homo sapiens, CaEs17
Experimental: as §1, §2

[8] = system: CNE (nasopharyngeal carcinoma cell); assay: as above; assay type: cell-based; details: Homo sapiens, MTT
Experimental: as §1, §2

[9] = system: PANC-1 (pancreatic cancer); assay: as above; assay type: cell-based; details: Homo sapiens, PANC-1, MTT
Experimental: as §1, §2

[10] = system: MGC 803 (human gastric cancer cell); assay: as above; assay type: cell-based; details: Homo sapiens, MGC-803
Experimental: as §1, §2

[11] = system: Becap37 (human breast cancer cell); assay: as above; assay type: cell-based; details: Homo sapiens
Experimental: as §1, §2

[12] = system: Jurkat (acute lymphoblastic leukemia, ALL); assay: MTT growth inhibition of leukemia cells, 72 h; assay type: cell-based, human; details: Homo sapiens, Jurkat
Excerpt: (§3) Leukemia cell lines: leukemia cell lines: K562/adr (drug-resistant, chronic myeloid leukemia, CML), NB4 (acute promyelocytic leukemia, AML), Kasumi-1 (acute myeloid leukemia M2 type, AML-M2), Jurkat (acute lymphoblastic leukemia, ALL), all of which are donated by Cancer Research Institute of Zhejiang University, China; and H9 (acute lymphoblastic leukemia, ALL), which is purchased from China Center for Type Culture Collection (CCTCC).
(§4) Reagents: The standard sample of homoharringtonine (HHT) is purchased from Taihua Natural Plant Pharmaceutical Co., Ltd., Shaanxi, China, the homoharringtonine derivatives of the present invention.
(§5) Obtaining 6000 well-growing leukemia cells and inoculating them into wells of a 96-well cell culture plate. The culture medium is the 1640 cell culture medium containing 10% fetal bovine serum. After adding the homoharringtonine derivatives of different concentrations and mixing uniformly, placing the plate in a carbon dioxide cell incubator (5% CO2) at 37° C. and incubated for 72 hours. Then the viable cell concentration is determined by the MTT method. In this experiment, the cell viability in control group (not treated with any compound) is set as 100%. On such basis, the cell viability (%) after treatment and the 50% inhibiting concentration of the compound for the leukemia cell growth at 72 hours (IC50 value of 72 hours) are calculated.

[13] = system: K562/adr (drug-resistant, chronic myeloid leukemia, CML); assay: MTT growth inhibition of leukemia cells, 72 h; assay type: cell-based, human; details: Homo sapiens, K562/Adr, MTT
Excerpt: as §3, §4, §5

[14] = system: H9 (acute lymphoblastic leukemia, ALL); assay: MTT growth inhibition of leukemia cells, 72 h; assay type: cell-based, human; details: Homo sapiens, MTT
Excerpt: as §3, §4, §5

[15] = system: Kasumi-1 (acute myeloid leukemia M2 type, AML-M2); assay: MTT growth inhibition of leukemia cells, 72 h; assay type: cell-based, human; details: for IC50 / IC90: Homo sapiens, Kasumi 1, MTT
Excerpt: as §3, §4, §5

[16] = system: NB4 (acute promyelocytic leukemia, AML); assay: MTT growth inhibition of leukemia cells, 72 h; assay type: cell-based, human; details: Homo sapiens, MTT
Excerpt: as §3, §4, §5

[17] = system: RPMI8226 (multiple myeloma); assay: MTT growth inhibition of multiple myeloma cells, 72 h; assay type: cell-based, human; details: for IC50 / IC90: Homo sapiens, RPMI-8226, MTT
Experimental: Multiple myeloma and lymphoma cell lines: RPMI8226 (multiple myeloma), purchased from Fuxiang Bio-tech Co. Ltd., Shanghai, China.
as §5

In the case of `COC(=O)C[C@](O)(CCCC(C)(C)OC(=O)c1cccnc1Cl)C(=O)O[C@@H]1C(OC)=C[C@]23CCCN2CCc2cc4c(cc2[C@H]13)OCO4` [BS-HH-066], the IC50 (PC-3 (prostate cancer)) is reported as 0.1 µg/mL (≈ 0.146 µM), the IC90 (PC-3 (prostate cancer)) is reported as over 16 µg/mL and the IC50 [1] is reported as 0.025 µg/mL (≈ 0.0365 µM). It also gave an IC90 [1] of over 16 µg/mL, an IC50 [2] of 0.003 µg/mL (≈ 0.00438 µM) and an IC90 [2] of 0.023 µg/mL (≈ 0.0336 µM). It also gave an IC50 [3] of 0.051 µg/mL (≈ 0.0744 µM), an IC90 [3] of over 16 µg/mL and an IC50 [4] of 0.0016 µg/mL (≈ 0.00234 µM). The IC90 [4] was 0.023 µg/mL (≈ 0.0336 µM), the IC50 (MG63 (osteosarcoma)) was 0.0032 µg/mL (≈ 0.00467 µM) and the IC90 (MG63 (osteosarcoma)) was 0.2 µg/mL (≈ 0.292 µM). For the same compound, the IC50 (A549 (human lung cancer)) was 0.03 µg/mL (≈ 0.0438 µM), the IC90 (A549 (human lung cancer)) was over 16 µg/mL and the IC50 [5] was 0.021 µg/mL (≈ 0.0306 µM). It also gave an IC90 [5] of 16 µg/mL (≈ 23.4 µM), an IC50 [6] of 0.007 µg/mL (≈ 0.0102 µM) and an IC90 [6] of 0.048 µg/mL (≈ 0.0701 µM). It also gave an IC50 [7] of 0.049 µg/mL (≈ 0.0715 µM), an IC90 [7] of 16 µg/mL (≈ 23.4 µM) and an IC50 [8] of 0.03 µg/mL (≈ 0.0438 µM). For the same compound, the IC90 [8] was over 16 µg/mL, the IC50 [9] was 0.026 µg/mL (≈ 0.0379 µM) and the IC90 [9] was over 16 µg/mL. The IC50 [10] was 0.005 µg/mL (≈ 0.0073 µM), the IC90 [10] was 0.052 µg/mL (≈ 0.0759 µM) and the IC50 [11] was 0.02 µg/mL (≈ 0.0292 µM). It also gave an IC90 [11] of 5.63 µg/mL (≈ 8.22 µM), an IC50 [12] of 0.005 µg/mL (≈ 0.0073 µM) and an IC90 [12] of at least 16 µg/mL. The IC50 [13] was 0.03 µg/mL (≈ 0.0438 µM), the IC90 [13] was 3.18 µg/mL (≈ 4.64 µM) and the IC50 [14] was 0.003 µg/mL (≈ 0.00438 µM). The IC90 [14] was 0.01 µg/mL (≈ 0.0146 µM), the IC50 [15] was 0.0007 µg/mL (≈ 0.00102 µM) and the IC90 [15] was 0.002 µg/mL (≈ 0.00292 µM). The “improvement of anti-Kasumi-1 activity compared with homoharringtonine” value ([15]; vs HHT) was “more than 7 fold”, the IC50 [16] was 0.002 µg/mL (≈ 0.00292 µM) and the IC90 [16] was 0.004 µg/mL (≈ 0.00584 µM). For the same compound, the IC50 [17] was 0.006 µg/mL (≈ 0.00876 µM) and the IC90 [17] was 0.033 µg/mL (≈ 0.0482 µM).

In the case of `COC(=O)C[C@@](CCCC(C)(C)OC(C)=O)(OC(C)=O)C(=O)O[C@@H]1C(OC)=C[C@]23CCCN2CCc2cc4c(cc2[C@H]13)OCO4` [BS-HH-001, 2,6-diacetylhomoharringtonine], the IC50 (PC-3 (prostate cancer)) is reported as 0.029 µg/mL (≈ 0.0461 µM), the IC90 (PC-3 (prostate cancer)) is reported as over 16 µg/mL and the IC50 [1] is reported as 0.026 µg/mL (≈ 0.0413 µM). For the same compound, the IC90 [1] was over 16 µg/mL, the IC50 [2] was 0.007 µg/mL (≈ 0.0111 µM) and the IC90 [2] was 0.02 µg/mL (≈ 0.0318 µM). The IC50 [3] was 0.12 µg/mL (≈ 0.191 µM), the IC90 [3] was over 16 µg/mL and the IC50 [4] was 0.016 µg/mL (≈ 0.0254 µM). The IC90 [4] was 0.13 µg/mL (≈ 0.206 µM), the IC50 (MG63 (osteosarcoma)) was 0.02 µg/mL (≈ 0.0318 µM) and the IC90 (MG63 (osteosarcoma)) was 2.4 µg/mL (≈ 3.81 µM). It also gave an IC50 (A549 (human lung cancer)) of 0.03 µg/mL (≈ 0.0476 µM), an IC90 (A549 (human lung cancer)) of over 16 µg/mL and an IC50 [5] of 0.026 µg/mL (≈ 0.0413 µM). It also gave an IC90 [5] of over 16 µg/mL, an IC50 [6] of 0.018 µg/mL (≈ 0.0286 µM) and an IC90 [6] of 0.11 µg/mL (≈ 0.175 µM). For the same compound, the IC50 [7] was 0.062 µg/mL (≈ 0.0985 µM), the IC90 [7] was over 16 µg/mL and the IC50 [8] was 0.062 µg/mL (≈ 0.0985 µM). It also gave an IC90 [8] of over 16 µg/mL, an IC50 [9] of 0.036 µg/mL (≈ 0.0572 µM) and an IC90 [9] of over 16 µg/mL. It also gave an IC50 [10] of 0.03 µg/mL (≈ 0.0476 µM), an IC90 [10] of 0.66 µg/mL (≈ 1.05 µM) and an IC50 [11] of 0.015 µg/mL (≈ 0.0238 µM). For the same compound, the IC90 [11] was 14 µg/mL (≈ 22.2 µM), the IC50 [12] was 0.012 µg/mL (≈ 0.0191 µM) and the IC90 [12] was at least 16 µg/mL. The IC50 [13] was 0.062 µg/mL (≈ 0.0985 µM), the IC90 [13] was 1.18 µg/mL (≈ 1.87 µM) and the IC50 [14] was 0.02 µg/mL (≈ 0.0318 µM). For the same compound, the IC90 [14] was 0.05 µg/mL (≈ 0.0794 µM), the IC50 [15] was 0.006 µg/mL (≈ 0.00953 µM) and the IC90 [15] was 0.021 µg/mL (≈ 0.0333 µM). For the same compound, the IC50 [16] was 0.01 µg/mL (≈ 0.0159 µM), the IC90 [16] was 0.022 µg/mL (≈ 0.0349 µM) and the “anti-RPMI8226 (multiple myeloma) effectiveness” value [17] was “particularly effective”. The IC50 [17] was 0.009 µg/mL (≈ 0.0143 µM) and the IC90 [17] was 0.12 µg/mL (≈ 0.191 µM).
